Literature values as cited in patent publication US12576064B2, “Urolithin gummy (pectin) formulations” (Amazentis SA, priority 2023, dated 2026).

Tested on: myotubes
Settings: in vitro

Compound | mean diameter of myotubes
O=c1oc2cc(O)ccc2c2ccc(O)cc12 [Urolithin A] | not seen
O=c1oc2cc(O)ccc2c2ccccc12 [Urolithin B] | increased
